Test results: patent US20200278355A1, “CONJUGATED PROTEINS AND USES THEREOF” (THE SCRIPPS RESEARCH INSTITUTE, priority 2017, published 2020)
“Also recorded” adds a separate entry of the source.

Molecular target: T1, NR0B1-SNW1 interaction (Homo sapiens, UniProt P51843)
T1 construct: endogenous in cells; host or cells: NR0B1: H2122 cell lysate
T1 sequence (P51843 1-470): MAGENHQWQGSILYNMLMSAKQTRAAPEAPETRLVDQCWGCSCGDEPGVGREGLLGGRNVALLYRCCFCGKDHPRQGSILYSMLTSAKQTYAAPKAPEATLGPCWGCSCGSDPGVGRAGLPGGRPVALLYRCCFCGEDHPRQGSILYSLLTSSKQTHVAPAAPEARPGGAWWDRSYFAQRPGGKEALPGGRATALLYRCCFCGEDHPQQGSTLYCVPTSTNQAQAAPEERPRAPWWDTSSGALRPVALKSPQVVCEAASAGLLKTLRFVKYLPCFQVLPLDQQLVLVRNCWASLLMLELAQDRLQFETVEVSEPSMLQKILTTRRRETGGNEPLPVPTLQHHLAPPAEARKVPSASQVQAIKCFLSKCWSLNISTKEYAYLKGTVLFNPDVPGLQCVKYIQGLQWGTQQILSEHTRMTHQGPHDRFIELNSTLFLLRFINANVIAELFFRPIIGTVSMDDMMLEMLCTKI
Experiment: In vitro binding assay: NR0B1 in H2122 lysate binding to immobilized FLAG-SNW1
Conditions: for IC50: in vitro, read-out: IC50, inhibition of the NR0B1-SNW1 interaction
Experimental: H2122 clarified cell lysate (100 μL, 1 mg ml^−1) in IP-buffer were incubated with the indicated compounds or vehicle (DMSO) for 3 hours at 4° C. with rotation. Following treatment, 3 volumes of IP-buffer was added along with immobilized FLAG-SNW1 beads (30 μL, 50:50 slurry), which was incubated for an additional hour at 4° C. Beads were washed three times with IP-buffer supplemented with 500 mM NaCl. Immunoprecipitated proteins were resolved by SDS-PAGE and analyzed by immunoblotting. NR0B1 and HA-NR0B1 levels were determined by using the NR0B1 antibody (Cell Signaling). IC50 curves were determined using Prism 6 (Graphpad) software, with maximum and minimum values set at 100% NR0B1 bound 0% NR0B1 bound respectively.
Statistical analysis was preformed using GraphPad Prism version 6 or 7 for Mac, GraphPad Software, La Jolla Calif. USA, or the R statistical programming language. Inhibition curves of the NR0B1-SNW1 interactions by NR0B1-ligand are fit as using log(inhibitor) vs % normalized remaining of NR0B1-SNW1 interaction and data points are plotted as the mean±SD (n=2-5 per group). NR0B1 half-life was calculated from a one-phase exponential decay curve plotted as mean±SD (4-10 per group). Statistical significance was defined as p<0.05 and determined by 2-tailed Student's t-test (FIG. 1I, FIG. 3B), two-way Anova with Bonferroni post-test analysis (FIG. 1J) or correlation analysis using Pearson product-moment correlation coefficient (FIG. 4B, FIG. 10G).
Next, a chemical probe targeting C274 of NR0B1 was developed. Using an in vitro binding assay (FIG. 5B), an ˜80-member library of cysteine-reactive electrophilic compounds was screened at 50 μM for blockade of interactions between endogenous NR0B1 and recombinant FLAG-SNW1 in cell lysates (FIG. 5C). Among the hits (>50% blockade) were a series of N-disubstituted chloroacetamides (CAs), including BPK-26 (FIGS. 5D, 5E), that were selected for further investigation. […] Both BPK-26 and BPK-29 inhibited the NR0B1-SNW1 interaction with IC50 values between 10-20 μM in vitro (FIG. 11C).

| Structure (SMILES) | inhibition of the NR0B1-SNW1 interaction (tested concentration range of 1-50 μM) | relative potency for inhibition of FLAG-SNW1 binding to NR0B1 (structure-activity relationship) (compounds at 50 μM) | IC50 | blockade of interactions between endogenous NR0B1 and recombinant FLAG-SNW1 (screened at 50 μM in cell lysates) |
| --- | --- | --- | --- | --- |
| O=C(c1ccc(N2CCOCC2)cc1)N1CCC(CN(C(=O)CCl)c2cncnc2)CC1 [BPK-9, 2-chloro-N-((1-(4-morpholinobenzoyl)piperidin-4-yl)methyl)-N-(pyrimidin-5-yl)acetamide] | did not inhibit |  |  |  |
| O=C(c1ccc(N2CCOCC2)cc1)N1CCCC(N(Cc2ccccc2)C(=O)CCl)CC1 (centres unmarked) [BPK-29, N-benzyl-2-chloro-N-(1-(4-morpholinobenzoyl)azepan-4-yl)acetamide] |  | the most potent analogue; also recorded: recovered potency | 10 to 20 µM |  |
| O=C(CCl)N(Cc1cccc(Cl)c1F)c1ccc(Cl)nc1 [BPK-26, 2-chloro-N-(3-chloro-2-fluorobenzyl)-N-(6-chloropyridin-3-yl)acetamide] |  |  | 10 to 20 µM | > 50% |
